Legend:
[1] = test system: drug-sensitive cell lines of Table 3; test: Cell line growth retardation assay, sensitive cohort; type: cell-based, Human; settings: for IC50: Homo sapiens, 144 h, arithmetic mean of IC50s over the sensitive cohort of Table 3, 6 days growth, read-out: AvgSen IC50; for Fold Diff: average IC50 of resistant cohort divided by average IC50 of sensitive cohort
Experimental: (§1) Cells were seeded at densities of 1,000-5,000 cells per well in 48-well tissue culture plates. After a 24 h rest period, cells were treated with compound at 10 μM, 1 μM, […], 0.08 μM, 0.016 μM, and 0.0032 μM. A group of cells were treated with the vehicle in which the compound was prepared and served as a control. Prior to treatment, cells were counted and this count was used as a baseline for the calculation of growth inhibition. The cells were grown in the presence of compounds for 6 days and were counted on day 6. All cell counting was performed using a Synentec Cellavista plate imager. Growth inhibition was calculated as a ratio of cell population doublings in the presence of compound versus the absence of compound. […] IC50 values for each compound were calculated by fitting curves to data points from each dose-response assay using the Proc NLIN function in SAS for Windows version 9.2 (SAS Institute, Inc.).
(§2) Human cancer cell lines were grouped as “sensitive” or “resistant” to MCL1 inhibition based on whether their growth was retarded by AMG-176 (i.e., (1′S,11R,12S,14E,16S,16aR,18aR)-6′-Chloro-3′,4′,12,13,16,16a,17,18,18a,19-decahydro-16-methoxy-11,12-dimethyl-,Spiro[5,7-etheno-1H,11H-cyclobut[i][1,4]oxazepino[3,4-f][1,2,7]thiadiazacyclohexadecine-2(3H),1′(2′H)-naphthalen]-8(9H)-one 10,10-dioxide) or MIK665 (i.e., (R)-2-((5-(3-chloro-2-methyl-4-(2-(4-methylpiperazin-1-yl)ethoxy)phenyl)-6-(4-fluorophenyl)thieno[2,3-d]pyrimidin-4-yl)oxy)-3-(2-((2-(2-methoxyphenyl)pyrimidin-4-yl)methoxy)phenyl)propanoic acid) (data not shown; see Table 3). These sensitive and resistant cohorts were interrogated for response to each compound, and IC50S were calculated for each cell line using the same technique described above. Average IC50S for the sensitive (“AvgSen IC50”) and resistant (“AvgRes IC50”) cohorts were calculated as arithmetic means of the group, and fold differences (“Fold Diff”) between the resistant and sensitive cohorts were calculated by diving the average IC50 for the resistant cohort by the average IC50 for the sensitive cohort. “A” represents an IC50 of 1 μM or less, “B” represents an IC50 of greater than 1 μM to 5 μM, “C” represents an IC50 of greater than 5 μM, “+” represents a fold difference of 10 or more, and “−” represents a fold difference less than 10.

[2] = test system: drug-resistant cell lines of Table 3; test: Cell line growth retardation assay, resistant cohort; type: cell-based, Human; settings: Homo sapiens, 144 h; arithmetic mean of IC50s over the resistant cohort of Table 3, 6 days growth; read-out: AvgRes IC50
Experimental: as §1, §2

MCL1 = MCL1 (Homo sapiens, UniProt Q07820); test: MCL1 affinity assay (competition binding, qPCR readout); settings: recombinant MCL1, 11-point 3-fold dilution series
Sequence of MCL1 (Q07820 whole entry): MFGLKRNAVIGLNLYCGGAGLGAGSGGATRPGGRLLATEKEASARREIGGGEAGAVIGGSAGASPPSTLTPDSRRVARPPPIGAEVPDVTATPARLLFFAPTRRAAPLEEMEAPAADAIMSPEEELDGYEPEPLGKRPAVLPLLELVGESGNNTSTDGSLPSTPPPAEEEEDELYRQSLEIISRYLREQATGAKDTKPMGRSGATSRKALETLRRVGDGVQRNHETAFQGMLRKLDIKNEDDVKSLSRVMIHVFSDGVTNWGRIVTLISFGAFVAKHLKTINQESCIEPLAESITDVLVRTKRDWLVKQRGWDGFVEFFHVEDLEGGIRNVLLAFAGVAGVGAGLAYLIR
Experimental: Recombinant MCL1, BCL2 and BCXL proteins were prepared in either an E. coli host derived from the BL21 strain or in HEK-293 cells. The recombinant proteins were subsequently tagged with DNA for qPCR detection. Streptavidin-coated magnetic beads were treated for 30 minutes at room temperature with the respective biotinylated peptide ligands for each recombinant protein to generate affinity resins for the assays. The liganded beads were blocked with excess biotin and washed with blocking buffer (SeaBlock (Pierce), 1% BSA, 0.05% Tween 20, 1 mM DTT) to remove unbound ligand and to reduce nonspecific binding. Binding reactions were assembled by combining recombinant protein, liganded affinity beads, and test compounds in 1× binding buffer (20% SeaBlock, 0.17×PBS, 0.05% Tween 20, 6 mM DTT). Test compounds were prepared as 111X stocks in 100% DMSO. The compounds were then diluted directly into the assays such that the final concentration of DMSO was 0.9%. The assay plates were incubated at room temperature with shaking for 1 hour and the affinity beads were washed with wash buffer (1×PBS, 0.05% Tween 20). The beads were then re-suspended in elution buffer (1×PBS, 0.05% Tween 20, 0.5 μM non-biotinylated affinity ligand) and incubated at room temperature with shaking for 30 minutes. The recombinant protein concentration in the eluates was measured by qPCR. Kds were determined using an 11-point 3-fold compound dilution series with three DMSO control points.

Row | SMILES | IC50 [1] [nM] | Fold Diff [1] | IC50 [2] [nM] | Kd (MCL1) [nM]
1 | Cc1c(Cl)c2cc(Cl)cnc2n1-c1cc(CC2CCC2)c2c(O[C@H](Cc3ccccc3OCc3ccnn3CC(F)(F)F)C(=O)O)nsc2c1 [Compound 101] | > 5000 | − (“−” represents a fold difference less than 10) | > 5000 | > 1500
2 | COc1ccccc1-c1nccc(COc2ccccc2C[C@@H](Oc2nsc3cnc(-c4cccc(F)c4)c(-c4ccc(OCCC5CCN(C)CC5)c(Cl)c4C)c23)C(=O)O)n1 (atropisomer, axis not shown) [Compound 102] | 1000 to 5000 | − (“−” represents a fold difference less than 10) | > 5000 | ≤ 100
3 | COc1cccc(Oc2ccc(-c3nccc(COc4ccccc4C[C@@H](Oc4nsc5cnc(C6CCC6)c(-c6ccc(OCCN7CCN(C)CC7)c(Cl)c6C)c45)C(=O)O)n3)cn2)c1 (atropisomer, axis not shown) [Compound 114] | 1000 to 5000 | − (“−” represents a fold difference less than 10) | > 5000 | 101 to 500
4 | Cc1c(-c2cc(-n3c(C)c(Cl)c4cc(Cl)cnc43)cc3snc(O[C@H](Cc4ccccc4OCc4ccnn4CC(F)(F)F)C(=O)O)c23)ccc(OCCN2CCN(C)CC2)c1Cl [Compound 100] | 1000 to 5000 | − (“−” represents a fold difference less than 10) | > 5000 | 501 to 1500
5 | CCOc1cc(-c2ncc3snc(O[C@H](Cc4ccccc4OCc4ccnc(-c5ccccc5OC)n4)C(=O)O)c3c2-c2ccc(OCCN3CCN(C)CC3)c(Cl)c2C)ccn1 (atropisomer, axis not shown) [Compound 32] | ≤ 1000 | + (“+” represents a fold difference of 10 or more) | > 5000 | ≤ 100
6 | Cc1cc(C#N)ccc1-c1nccc(COc2ccccc2C[C@@H](Oc2nsc3cnc(C4CCC4)c(-c4ccc(OCCN5CCN(C)CC5)c(Cl)c4C)c23)C(=O)O)n1 (atropisomer, axis not shown) [Compound 116] | ≤ 1000 | + (“+” represents a fold difference of 10 or more) | > 5000 | ≤ 100
7 | COc1cccc(-c2ncc3snc(O[C@H](Cc4ccccc4OCc4ccnc(OCCCC(F)(F)F)n4)C(=O)O)c3c2-c2ccc(OCCN3CCN(C)CC3)c(Cl)c2C)c1 [Compound 59] | 1000 to 5000 | − (“−” represents a fold difference less than 10) | > 5000 | 101 to 500
8 | COc1cccc(-c2ncc3snc(O[C@H](Cc4ccccc4OCc4ccnc(-c5ccccc5OC(F)F)n4)C(=O)O)c3c2-c2ccc(OCCN3CCN(C)CC3)c(Cl)c2C)c1 (atropisomer, axis not shown) [Compound 66] | ≤ 1000 | + (“+” represents a fold difference of 10 or more) | > 5000 | ≤ 100
9 | COc1cccc(-c2ncc3snc(O[C@H](Cc4ccccc4OCc4ccnc(-c5ccccc5OC)n4)C(=O)O)c3c2-c2ccc(OCCN3CCN(C)CC3)c(Cl)c2C)c1 (atropisomer, axis not shown) [Compound 39] | 1000 to 5000 | − (“−” represents a fold difference less than 10) | 1000 to 5000 | 501 to 1500
10 | COc1ccccc1-c1nccc(COc2ccccc2C[C@@H](Oc2nsc3cnc(C4CCC4)c(-c4ccc(OC)c(Cl)c4C)c23)C(=O)O)n1 (atropisomer, axis not shown) [Compound 107] | > 5000 | − (“−” represents a fold difference less than 10) | > 5000 | ≤ 100
11 | COc1cccc(-c2ncc3snc(O[C@H](Cc4ccccc4OCc4ccnc(OCC(F)F)n4)C(=O)O)c3c2-c2ccc(OCCN3CCN(C)CC3)c(Cl)c2C)c1 [Compound 58] | ≤ 1000 | + (“+” represents a fold difference of 10 or more) | > 5000 | ≤ 100
12 | COc1cccc(-c2ncc3snc(O[C@H](Cc4ccccc4OCc4ccnc(-c5cc(F)ccc5OC)n4)C(=O)O)c3c2-c2ccc(OCCN3CCN(C)CC3)c(Cl)c2C)c1 (atropisomer, axis not shown) [Compound 67] | ≤ 1000 | + (“+” represents a fold difference of 10 or more) | > 5000 | ≤ 100
13 | COc1ccccc1-c1nccc(COc2ccccc2C[C@@H](Oc2nsc3cnc(C4CCC4)c(-c4ccc(OC)c(Cl)c4C)c23)C(=O)OCc2oc(=O)oc2C)n1 (atropisomer, axis not shown) [Compound 106] | 1000 to 5000 | − (“−” represents a fold difference less than 10) | > 5000 | 101 to 500
14 | Cc1c(-c2c(C3CCC3)ncc3snc(O[C@H](Cc4ccccc4OCc4ccnc(C5CCOCC5)n4)C(=O)O)c23)ccc(OCCN2CCN(C)CC2)c1Cl (atropisomer, axis not shown) [Compound 111] | ≤ 1000 | + (“+” represents a fold difference of 10 or more) | > 5000 | ≤ 100
15 | Cc1c(-c2c(C3CCC3)ncc3snc(O[C@H](Cc4ccccc4OCc4ccnc(C5CCC5)n4)C(=O)O)c23)ccc(OCCN2CCN(C)CC2)c1Cl (atropisomer, axis not shown) [Compound 104] | 1000 to 5000 | − (“−” represents a fold difference less than 10) | > 5000 | 101 to 500
16 | COc1cccc(-c2ncc3snc(O[C@H](Cc4ccccc4OCc4ccnc(N5CCCC(F)(F)C5)n4)C(=O)O)c3c2-c2ccc(OCCN3CCN(C)CC3)c(Cl)c2C)c1 (atropisomer, axis not shown) [Compound 61] | ≤ 1000 | + (“+” represents a fold difference of 10 or more) | > 5000 | 101 to 500
17 | COc1ccccc1-c1nccc(COc2ccccc2C[C@@H](Oc2nsc3cnc(-c4cnc(C5CC5)o4)c(-c4ccc(OCCN5CCN(C)CC5)c(Cl)c4C)c23)C(=O)O)n1 (atropisomer, axis not shown) [Compound 78] | 1000 to 5000 | − (“−” represents a fold difference less than 10) | > 5000 | ≤ 100
18 | COc1ccccc1-c1nccc(COc2ccccc2C[C@@H](Oc2nsc3cnc(-c4cnn(CC5CCC5)c4)c(-c4ccc(OCCN5CCN(C)CC5)c(Cl)c4C)c23)C(=O)O)n1 (atropisomer, axis not shown) [Compound 90] | 1000 to 5000 | − (“−” represents a fold difference less than 10) | > 5000 | 101 to 500
19 | COc1ccccc1-c1nccc(COc2ccccc2C[C@@H](Oc2nsc3cnc(-c4cnc(C)o4)c(-c4ccc(OCCN5CCN(C)CC5)c(Cl)c4C)c23)C(=O)O)n1 (atropisomer, axis not shown) [Compound 77] | 1000 to 5000 | − (“−” represents a fold difference less than 10) | > 5000 | ≤ 100
20 | COc1cc(-c2ncc3snc(O[C@H](Cc4ccccc4OCc4ccnc(-c5ccccc5OC)n4)C(=O)O)c3c2-c2ccc(OCCN3CCN(C)CC3)c(Cl)c2C)ccc1F (atropisomer, axis not shown) [Compound 37] | > 5000 | − (“−” represents a fold difference less than 10) | > 5000 | 101 to 500

Reference: patent publication US20230116602A1, “MCL1 INHIBITORS AND USES THEREOF” (California Institute of Technology, priority 2019, published 2023)
